{"source": "ChEMBL document CHEMBL1201862", "about": "“PubChem BioAssay data set” (2004)", "key": {"[1]": {"target": "Testis-specific serine/threonine-protein kinase 1 (Homo sapiens, UniProt Q9BXA7)", "sequence (Q9BXA7 whole entry)": "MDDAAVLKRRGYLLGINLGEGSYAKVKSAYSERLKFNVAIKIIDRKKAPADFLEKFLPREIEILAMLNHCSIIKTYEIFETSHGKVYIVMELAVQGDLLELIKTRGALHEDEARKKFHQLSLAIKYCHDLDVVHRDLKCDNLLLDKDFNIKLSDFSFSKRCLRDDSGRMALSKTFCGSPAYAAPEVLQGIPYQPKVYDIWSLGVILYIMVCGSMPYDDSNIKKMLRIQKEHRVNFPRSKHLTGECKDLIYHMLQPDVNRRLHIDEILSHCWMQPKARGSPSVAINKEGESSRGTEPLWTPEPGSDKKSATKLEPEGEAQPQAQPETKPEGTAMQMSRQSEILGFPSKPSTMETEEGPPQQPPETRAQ", "format": "functional"}, "[2]": {"target": "MAP kinase-activated protein kinase 2 (Homo sapiens, UniProt P49137)", "sequence (P49137 whole entry)": "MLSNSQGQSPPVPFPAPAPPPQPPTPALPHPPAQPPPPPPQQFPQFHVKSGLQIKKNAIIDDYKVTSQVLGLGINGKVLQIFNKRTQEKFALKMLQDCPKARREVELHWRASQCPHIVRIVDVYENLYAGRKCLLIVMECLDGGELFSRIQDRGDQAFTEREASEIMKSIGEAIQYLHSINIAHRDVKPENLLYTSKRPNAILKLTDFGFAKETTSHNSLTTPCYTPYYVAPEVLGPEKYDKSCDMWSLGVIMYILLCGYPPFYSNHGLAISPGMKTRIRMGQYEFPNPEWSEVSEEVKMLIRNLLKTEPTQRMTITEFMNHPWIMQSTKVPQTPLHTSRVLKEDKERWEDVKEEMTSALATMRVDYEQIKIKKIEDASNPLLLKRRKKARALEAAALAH", "format": "functional"}, "[3]": {"target": "Eukaryotic elongation factor 2 kinase (Homo sapiens, UniProt O00418)", "format": "functional"}, "[4]": {"target": "Vascular endothelial growth factor receptor 3 (Homo sapiens, UniProt P35916)", "format": "functional"}, "[5]": {"target": "Serine/threonine-protein kinase D3 (Homo sapiens, UniProt O94806)", "format": "functional"}, "[6]": {"target": "T1, Lymphokine-activated killer T-cell-originated protein kinase (Homo sapiens, UniProt Q96KB5)", "T1 sequence (Q96KB5 whole entry)": "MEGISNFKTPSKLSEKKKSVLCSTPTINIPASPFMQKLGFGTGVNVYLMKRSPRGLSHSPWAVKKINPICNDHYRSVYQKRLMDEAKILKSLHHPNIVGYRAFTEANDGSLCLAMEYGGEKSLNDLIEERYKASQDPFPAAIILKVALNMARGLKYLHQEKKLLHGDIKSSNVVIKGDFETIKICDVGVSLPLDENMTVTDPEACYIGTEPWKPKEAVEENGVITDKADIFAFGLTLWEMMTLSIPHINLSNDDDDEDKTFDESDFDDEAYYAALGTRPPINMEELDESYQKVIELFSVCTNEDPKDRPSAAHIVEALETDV", "format": "functional"}, "[7]": {"target": "Receptor tyrosine-protein kinase erbB-4 (Homo sapiens, UniProt Q15303)", "sequence (Q15303 whole entry)": "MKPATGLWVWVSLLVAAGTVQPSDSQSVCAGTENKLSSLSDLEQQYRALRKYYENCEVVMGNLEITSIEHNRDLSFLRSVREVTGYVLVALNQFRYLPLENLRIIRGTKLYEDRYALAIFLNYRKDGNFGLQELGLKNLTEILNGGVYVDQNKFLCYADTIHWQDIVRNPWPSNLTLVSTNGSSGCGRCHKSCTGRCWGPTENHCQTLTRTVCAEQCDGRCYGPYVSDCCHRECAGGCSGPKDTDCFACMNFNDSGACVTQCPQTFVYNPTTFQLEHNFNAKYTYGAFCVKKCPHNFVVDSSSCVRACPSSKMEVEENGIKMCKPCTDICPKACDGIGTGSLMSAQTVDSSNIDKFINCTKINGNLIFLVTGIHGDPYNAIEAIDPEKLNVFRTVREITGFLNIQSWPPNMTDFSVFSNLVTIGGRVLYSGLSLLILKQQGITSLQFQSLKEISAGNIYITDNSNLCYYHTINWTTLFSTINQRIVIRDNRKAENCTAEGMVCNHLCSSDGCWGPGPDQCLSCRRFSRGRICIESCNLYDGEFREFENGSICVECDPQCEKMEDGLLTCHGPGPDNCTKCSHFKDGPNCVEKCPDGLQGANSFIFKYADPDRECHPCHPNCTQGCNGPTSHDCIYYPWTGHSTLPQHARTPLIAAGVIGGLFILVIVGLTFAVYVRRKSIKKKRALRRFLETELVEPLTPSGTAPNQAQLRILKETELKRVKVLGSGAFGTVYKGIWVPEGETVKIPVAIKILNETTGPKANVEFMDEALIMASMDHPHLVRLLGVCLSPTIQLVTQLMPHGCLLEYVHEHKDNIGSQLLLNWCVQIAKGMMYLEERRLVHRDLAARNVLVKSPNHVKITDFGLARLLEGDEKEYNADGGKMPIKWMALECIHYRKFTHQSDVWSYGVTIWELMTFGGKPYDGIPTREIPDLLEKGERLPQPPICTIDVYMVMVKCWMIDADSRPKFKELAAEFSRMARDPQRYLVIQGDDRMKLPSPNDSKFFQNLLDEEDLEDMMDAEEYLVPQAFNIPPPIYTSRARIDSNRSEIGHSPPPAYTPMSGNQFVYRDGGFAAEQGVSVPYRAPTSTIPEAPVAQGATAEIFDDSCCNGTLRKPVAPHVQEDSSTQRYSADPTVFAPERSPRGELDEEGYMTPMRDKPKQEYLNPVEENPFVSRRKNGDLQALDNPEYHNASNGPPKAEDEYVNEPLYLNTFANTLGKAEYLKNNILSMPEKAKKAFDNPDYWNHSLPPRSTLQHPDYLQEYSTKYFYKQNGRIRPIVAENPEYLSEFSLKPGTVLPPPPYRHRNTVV", "format": "functional"}, "[8]": {"target": "Maternal embryonic leucine zipper kinase (Homo sapiens, UniProt Q14680)", "format": "functional"}, "[9]": {"target": "Homeodomain-interacting protein kinase 2 (Homo sapiens, UniProt Q9H2X6)", "format": "functional"}, "[10]": {"target": "Serine/threonine-protein kinase PAK 4 (Homo sapiens, UniProt O96013)", "sequence (O96013 whole entry)": "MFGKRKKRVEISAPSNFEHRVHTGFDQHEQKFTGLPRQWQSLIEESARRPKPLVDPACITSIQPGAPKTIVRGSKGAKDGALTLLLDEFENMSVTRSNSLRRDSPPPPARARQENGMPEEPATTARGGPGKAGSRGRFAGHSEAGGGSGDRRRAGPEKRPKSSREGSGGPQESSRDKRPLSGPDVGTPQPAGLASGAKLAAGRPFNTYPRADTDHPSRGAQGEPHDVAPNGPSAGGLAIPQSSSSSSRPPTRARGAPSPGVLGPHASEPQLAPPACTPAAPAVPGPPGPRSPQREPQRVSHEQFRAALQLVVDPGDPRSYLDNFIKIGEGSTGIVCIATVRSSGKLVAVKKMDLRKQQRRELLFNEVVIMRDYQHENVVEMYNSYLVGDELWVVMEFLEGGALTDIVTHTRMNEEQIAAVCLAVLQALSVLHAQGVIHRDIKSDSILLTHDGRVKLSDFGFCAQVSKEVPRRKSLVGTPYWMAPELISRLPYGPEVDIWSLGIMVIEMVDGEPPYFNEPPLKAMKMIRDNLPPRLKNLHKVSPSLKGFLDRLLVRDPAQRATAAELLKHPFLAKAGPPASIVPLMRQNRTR", "format": "functional"}, "[11]": {"target": "Interleukin-1 receptor-associated kinase 4 (Homo sapiens, UniProt Q9NWZ3)", "sequence (Q9NWZ3 whole entry)": "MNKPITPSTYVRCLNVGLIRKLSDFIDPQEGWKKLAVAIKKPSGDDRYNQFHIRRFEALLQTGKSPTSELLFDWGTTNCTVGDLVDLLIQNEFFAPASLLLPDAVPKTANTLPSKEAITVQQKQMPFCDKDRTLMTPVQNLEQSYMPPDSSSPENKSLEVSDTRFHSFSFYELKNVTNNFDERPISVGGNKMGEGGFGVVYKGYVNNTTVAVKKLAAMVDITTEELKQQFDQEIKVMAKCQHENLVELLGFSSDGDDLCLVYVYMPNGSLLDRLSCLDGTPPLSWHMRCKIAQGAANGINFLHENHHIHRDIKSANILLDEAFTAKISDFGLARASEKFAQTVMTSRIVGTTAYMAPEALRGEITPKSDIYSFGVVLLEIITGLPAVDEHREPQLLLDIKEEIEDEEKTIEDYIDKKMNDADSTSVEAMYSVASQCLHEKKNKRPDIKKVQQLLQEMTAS", "format": "functional"}, "[12]": {"target": "Mast/stem cell growth factor receptor Kit (Homo sapiens, UniProt P10721)", "format": "functional"}, "[13]": {"target": "Interleukin-1 receptor-associated kinase 1 (Homo sapiens, UniProt P51617)", "format": "functional"}, "[14]": {"target": "5'-AMP-activated protein kinase catalytic subunit alpha-1 (Homo sapiens, UniProt Q13131)", "format": "functional"}, "[15]": {"target": "cAMP-dependent protein kinase catalytic subunit PRKX (Homo sapiens, UniProt P51817)", "format": "functional"}, "[16]": {"target": "Dual specificity protein kinase CLK2 (Homo sapiens, UniProt P49760)", "format": "functional"}, "[17]": {"target": "Serine/threonine-protein kinase N2 (Homo sapiens, UniProt Q16513)", "format": "functional"}, "[18]": {"target": "Serine/threonine-protein kinase pim-1 (Homo sapiens, UniProt P11309)", "sequence (P11309 whole entry)": "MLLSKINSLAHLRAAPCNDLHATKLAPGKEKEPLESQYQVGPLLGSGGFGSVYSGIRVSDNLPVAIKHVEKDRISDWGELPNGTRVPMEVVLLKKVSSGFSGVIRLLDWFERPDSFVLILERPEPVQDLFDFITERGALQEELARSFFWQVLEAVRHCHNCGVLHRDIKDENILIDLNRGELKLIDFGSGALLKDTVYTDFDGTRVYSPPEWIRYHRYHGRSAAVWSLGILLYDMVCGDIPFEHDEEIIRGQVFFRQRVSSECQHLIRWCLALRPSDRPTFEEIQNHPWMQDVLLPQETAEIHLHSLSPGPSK", "format": "functional"}, "[19]": {"target": "High affinity nerve growth factor receptor (Homo sapiens, UniProt P04629)", "format": "functional"}, "[20]": {"target": "Serine/threonine-protein kinase D2 (Homo sapiens, UniProt Q9BZL6)", "format": "functional"}, "[21]": {"target": "Tyrosine-protein kinase Blk (Homo sapiens, UniProt P51451)", "format": "functional"}, "[22]": {"target": "PAS domain-containing serine/threonine-protein kinase (Homo sapiens, UniProt Q96RG2)", "format": "functional"}, "[23]": {"target": "MAP/microtubule affinity-regulating kinase 3 (Homo sapiens, UniProt P27448)", "sequence (P27448 whole entry)": "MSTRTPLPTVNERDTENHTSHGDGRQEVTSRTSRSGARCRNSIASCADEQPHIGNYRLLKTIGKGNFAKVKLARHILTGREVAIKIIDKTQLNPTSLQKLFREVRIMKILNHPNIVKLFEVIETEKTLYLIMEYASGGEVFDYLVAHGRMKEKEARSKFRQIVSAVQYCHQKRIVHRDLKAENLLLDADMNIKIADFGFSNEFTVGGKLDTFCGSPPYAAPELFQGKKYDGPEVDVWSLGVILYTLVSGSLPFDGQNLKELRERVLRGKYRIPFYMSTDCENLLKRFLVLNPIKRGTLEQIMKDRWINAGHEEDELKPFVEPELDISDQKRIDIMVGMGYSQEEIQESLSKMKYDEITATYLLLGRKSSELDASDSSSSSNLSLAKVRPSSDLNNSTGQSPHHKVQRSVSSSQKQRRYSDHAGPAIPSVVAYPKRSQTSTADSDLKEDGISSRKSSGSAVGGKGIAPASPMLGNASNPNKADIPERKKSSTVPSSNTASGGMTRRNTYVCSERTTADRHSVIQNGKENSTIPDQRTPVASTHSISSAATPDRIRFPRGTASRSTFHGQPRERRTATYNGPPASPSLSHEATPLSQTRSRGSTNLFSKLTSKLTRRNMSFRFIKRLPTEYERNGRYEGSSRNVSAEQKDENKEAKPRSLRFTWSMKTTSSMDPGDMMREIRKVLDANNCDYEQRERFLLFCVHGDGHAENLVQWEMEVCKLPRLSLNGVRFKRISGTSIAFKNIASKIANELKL", "format": "functional"}, "[24]": {"test": "A549 cell cytotoxicity, dose response, cytotoxicity control, plate reader, cherry-pick, antagonist series (AID 743412)", "format": "functional, cell-based"}, "[25]": {"target": "Protein disulfide-isomerase A6 (Homo sapiens, UniProt Q15084)", "sequence (Q15084 whole entry)": "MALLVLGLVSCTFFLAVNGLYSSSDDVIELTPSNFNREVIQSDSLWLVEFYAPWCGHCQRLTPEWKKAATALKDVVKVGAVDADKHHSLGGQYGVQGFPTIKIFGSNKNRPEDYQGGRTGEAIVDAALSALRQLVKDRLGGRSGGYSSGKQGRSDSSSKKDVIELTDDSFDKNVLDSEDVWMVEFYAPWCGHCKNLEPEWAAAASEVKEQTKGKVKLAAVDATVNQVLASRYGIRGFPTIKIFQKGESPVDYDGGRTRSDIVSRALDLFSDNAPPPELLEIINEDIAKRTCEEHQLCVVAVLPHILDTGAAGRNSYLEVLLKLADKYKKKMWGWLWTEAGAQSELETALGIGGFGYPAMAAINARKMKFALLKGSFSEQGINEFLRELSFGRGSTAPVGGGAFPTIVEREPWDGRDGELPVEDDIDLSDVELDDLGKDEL", "test": "inhibitors of ERp5-mediated insulin aggregation, dose response, biochemical, turbidity, absorbance 650 nm, cherry-picked samples (AID 720566)"}, "[26]": {"test": "MDA-MB-231 cell growth inhibition, dose response, cytotoxicity control for RAD54 inhibitor project, CellTiter-Glo luminescence, cherry-pick (AID 651692)", "format": "functional, cell-based"}, "[27]": {"target": "Mu-type opioid receptor (Homo sapiens, UniProt P35372)", "test": "Counterscreen for agonists of heterodimerization of the mu 1 (OPRM1) and delta 1 (OPRD1) opioid receptors: Luminescence-based cell-based high throughput dose response assay to identify agonists of OPRM1 homodimerization.", "format": "functional"}, "[28]": {"test": "HepG2 cell cytotoxicity, dose response, cytotoxicity control for Shn3 inhibitor project, CellTiter-Glo, cherry-picked (AID 624134)", "format": "functional, cell-based"}, "[29]": {"target": "Caspase-8 (Homo sapiens, UniProt Q14790)", "sequence (Q14790 217-374 limits assumed)": "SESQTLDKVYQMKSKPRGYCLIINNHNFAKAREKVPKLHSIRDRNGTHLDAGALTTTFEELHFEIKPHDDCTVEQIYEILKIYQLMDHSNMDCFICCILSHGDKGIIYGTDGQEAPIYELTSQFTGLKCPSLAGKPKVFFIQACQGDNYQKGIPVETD", "sequence (Q14790 385-479 limits assumed)": "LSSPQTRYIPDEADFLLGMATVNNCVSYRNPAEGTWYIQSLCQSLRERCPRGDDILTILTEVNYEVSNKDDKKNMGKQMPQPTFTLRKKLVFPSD", "test": "caspase-8 inhibition counter-screen, dose response, selectivity assay for caspase-6 inhibitor project, biochemical, Z-IETD-R110 fluorescence, cherry-picked samples (AID 743294)"}, "[30]": {"target": "T2, Sentrin-specific protease 8 (Homo sapiens, UniProt Q96LD8)", "T2 sequence (Q96LD8 whole entry)": "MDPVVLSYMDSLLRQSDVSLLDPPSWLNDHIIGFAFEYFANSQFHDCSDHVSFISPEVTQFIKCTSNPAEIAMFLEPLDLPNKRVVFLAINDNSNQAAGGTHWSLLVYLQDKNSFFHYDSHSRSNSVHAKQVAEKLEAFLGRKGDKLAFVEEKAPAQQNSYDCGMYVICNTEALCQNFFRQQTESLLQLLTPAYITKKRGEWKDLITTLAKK", "format": "functional"}, "[31]": {"target": "T3, Serine/threonine-protein phosphatase (Homo sapiens, UniProt Q9BPW0)", "T3 sequence (Q9BPW0 whole entry)": "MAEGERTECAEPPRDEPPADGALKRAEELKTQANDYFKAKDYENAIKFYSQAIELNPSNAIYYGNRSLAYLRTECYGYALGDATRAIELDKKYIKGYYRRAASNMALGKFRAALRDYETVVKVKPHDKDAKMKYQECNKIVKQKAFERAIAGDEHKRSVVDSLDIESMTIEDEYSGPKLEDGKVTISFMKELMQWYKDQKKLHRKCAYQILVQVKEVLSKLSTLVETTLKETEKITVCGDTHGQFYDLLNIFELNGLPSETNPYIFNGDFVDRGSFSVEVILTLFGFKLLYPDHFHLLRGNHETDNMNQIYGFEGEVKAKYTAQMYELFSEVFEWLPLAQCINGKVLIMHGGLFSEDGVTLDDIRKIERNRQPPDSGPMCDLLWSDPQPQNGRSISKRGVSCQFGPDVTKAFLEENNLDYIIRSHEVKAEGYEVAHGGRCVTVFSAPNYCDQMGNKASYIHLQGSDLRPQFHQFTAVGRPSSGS", "test": "PP5 phosphatase inhibitors, dose response, biochemical, fluorescence (AID 2395)"}}, "note": "Calls of active or inactive are those of the source.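 For EC50 in this document: U2OS cells expressing OPRM1 and beta-arrestin as split beta-galactosidase partners.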"}
{"compound": "COc1cc2ncn(-c3cc(OCc4ccccc4C(F)(F)F)c(C(N)=O)s3)c2cc1OC", "note": "[GW843682X]", "values": [{"measurement": "Ki", "setting": "[1]", "result": "200 nM (active)"}, {"measurement": "Ki", "setting": "[2]", "result": "> 7.94 µM (inactive)"}, {"measurement": "Ki", "setting": "[3]", "result": "> 3.98 µM (inactive)"}, {"measurement": "Ki", "setting": "[4]", "result": "100 nM (active)"}, {"measurement": "Ki", "setting": "[5]", "result": "> 10 µM (inactive)"}, {"measurement": "Ki", "setting": "[6]", "result": "> 10 µM (inactive)"}, {"measurement": "Ki", "setting": "[7]", "result": "> 3.98 µM (inactive)"}, {"measurement": "Ki", "setting": "[8]", "result": "158 nM (active)"}, {"measurement": "Ki", "setting": "[9]", "result": "> 3.16 µM (inactive)"}, {"measurement": "Ki", "setting": "[10]", "result": "> 5.01 µM (inactive)"}, {"measurement": "Ki", "setting": "[11]", "result": "> 10 µM (inactive)"}, {"measurement": "Ki", "setting": "[12]", "result": "126 nM (active)"}, {"measurement": "Ki", "setting": "[13]", "result": "> 7.94 µM (inactive)"}, {"measurement": "Ki", "setting": "[14]", "result": "> 5.01 µM (inactive)"}, {"measurement": "Ki", "setting": "[15]", "result": "1 µM (active)"}, {"measurement": "Ki", "setting": "[16]", "result": "> 7.94 µM (inactive)"}, {"measurement": "Ki", "setting": "[17]", "result": "> 7.94 µM (inactive)"}, {"measurement": "Ki", "setting": "[18]", "result": "> 10 µM (inactive)"}, {"measurement": "Ki", "setting": "[19]", "result": "398 nM (active)"}, {"measurement": "Ki", "setting": "[20]", "result": "> 10 µM (inactive)"}, {"measurement": "Ki", "setting": "[21]", "result": "> 1.58 µM (inactive)"}, {"measurement": "Ki", "setting": "[22]", "result": "> 1.58 µM (inactive)"}, {"measurement": "Ki", "setting": "[23]", "result": "> 6.31 µM (inactive)"}]}
{"compound": "CCCc1nc2c(=O)n(C)c(=O)nc-2n(C)n1", "values": [{"measurement": "AC50", "setting": "[24]", "result": "6.05 µM (active)"}, {"measurement": "AC50", "setting": "[25]", "result": "513 nM (active)"}, {"measurement": "AC50", "setting": "[26]", "result": "2.71 µM (active)"}, {"measurement": "EC50", "setting": "[27]", "result": "> 92.5 µM (inactive)"}, {"measurement": "AC50", "setting": "[28]", "result": "4.96 µM (active)"}, {"measurement": "AC50", "setting": "[29]", "result": "310 nM (active)"}]}
{"compound": "CC(=O)c1ccc(NC2=C(N3CCOCC3)C(=O)c3ccccc3C2=O)cc1", "values": [{"measurement": "IC50", "setting": "[30]", "result": "18.8 µM (active)"}, {"measurement": "IC50", "setting": "[31]", "result": "19.3 µM (not active)"}]}
